Results as given in article PMC2745115 (Bioorganic & medicinal chemistry letters, 2008).

How the values were obtained:
[1] = humans; cited from earlier work
[2] = rhesus monkeys; cited from earlier work
[3] = Hydrolysis stability of esters by HPLC; assay type: physicochemical; details: pH 7.4, 25 mM phosphate buffer, 37 C, after 24 hours
κ opioid receptor = κ opioid receptor (Homo sapiens, UniProt P41145); experiment: Inhibition of [3H]U69,593 binding to CHO cell membranes; details: relative to butorphanol
μ opioid receptor = μ opioid receptor (Homo sapiens, UniProt P35372); experiment: Inhibition of [3H]DAMGO binding to CHO cell membranes; details: relative to 4d
μ opioid receptor, sequence (P35372 whole entry, species assumed): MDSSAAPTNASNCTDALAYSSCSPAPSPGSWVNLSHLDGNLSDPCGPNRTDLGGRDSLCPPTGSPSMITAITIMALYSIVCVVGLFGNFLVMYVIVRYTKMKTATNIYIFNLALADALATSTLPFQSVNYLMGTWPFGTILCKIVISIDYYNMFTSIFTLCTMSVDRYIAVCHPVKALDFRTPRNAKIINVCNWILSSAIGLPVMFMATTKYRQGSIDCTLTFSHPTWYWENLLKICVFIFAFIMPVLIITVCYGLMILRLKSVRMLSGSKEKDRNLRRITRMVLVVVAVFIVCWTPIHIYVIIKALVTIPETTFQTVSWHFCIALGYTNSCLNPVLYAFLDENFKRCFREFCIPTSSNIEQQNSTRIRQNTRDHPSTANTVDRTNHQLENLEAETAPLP

κ opioid receptor, sequence (P41145 whole entry): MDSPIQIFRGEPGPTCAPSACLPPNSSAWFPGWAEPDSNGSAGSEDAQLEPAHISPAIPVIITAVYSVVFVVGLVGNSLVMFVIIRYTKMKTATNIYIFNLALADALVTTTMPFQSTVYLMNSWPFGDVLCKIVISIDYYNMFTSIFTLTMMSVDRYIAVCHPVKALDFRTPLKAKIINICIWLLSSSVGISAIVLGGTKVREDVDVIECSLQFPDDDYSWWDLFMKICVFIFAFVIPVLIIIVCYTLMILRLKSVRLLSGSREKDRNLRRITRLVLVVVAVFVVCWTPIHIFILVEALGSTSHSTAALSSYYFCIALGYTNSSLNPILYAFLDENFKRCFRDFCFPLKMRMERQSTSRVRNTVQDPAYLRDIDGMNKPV

Oc1ccc2c(c1)[C@@]13CCCC[C@@]1(O)[C@@H](C2)N(CC1CCC1)CC3 [3b, butorphanol]
analgesic potency, times that of meperdine [1]: 30 – 40 times
analgesic potency, times that of morphine [1]: 4 – 8 times
analgesic potency, times that of pentazocine [1]: 16 – 24 times
cocaine self-administration [2]: decrease cocaine self-administration
food-maintained responding [2]: without producing a significant change

Cl.O=C(Cc1ccccc1)Oc1ccc2c(c1)[C@@]13CCCC[C@@]1(O)[C@@H](C2)N(CC1CCC1)CC3 [4b]
hydrolysis of the esters [3]: No hydrolysis

Cc1ccc(C(C)C(=O)Oc2ccc3c(c2)[C@@]24CCCC[C@@]2(O)[C@@H](C3)N(CC2CCC2)CC4)cc1.Cl (stereo partly drawn) [4c]
hydrolysis of the esters [3]: No hydrolysis

Cl.O=C(COc1ccccc1)Oc1ccc2c(c1)[C@@]13CCCC[C@@]1(O)[C@@H](C2)N(CC1CCC1)CC3 [4d, (-)-N-cyclobutylmethylmorphinan-3-yl-14-ol phenoxyacetate]
more potent binder at the κ receptor than butorphanol (κ opioid receptor): four-fold

Cl.O[C@@]12CCCC[C@@]13CCN(CC1CCC1)[C@@H]2Cc1ccc(OCCc2ccccc2)cc13 [5d]
less binding affinity at the μ opioid receptor than 4d (μ opioid receptor): 164 fold
